# Source: patent US20150225454A1, “TETRABRANCHED PEPTIDES AND ANALOGUES AS A NEW CLASS OF ANTIMICROBIALS AND THEIR PREPARATION THEREOF” (priority 2012, published 2015)
# Where a SMILES comes first, the peptide text is derived from it. Bridges are numbered along the chain shown (N, C = ends). Roman numbers before positions name the chains, in order.
# Tested on: IOBA-NHC cells
# Format: cell-based, human
# Details: 24 h
# Experimental: IOBA-NHC cells were cultured under standard conditions (humidified atmosphere of 5% CO2 at 37° C.) in DMEM/F12 supplemented with 1 μg/ml bovine pancreas insulin, 2 ng/ml mouse epidermal growth factor, 0.1 μg/ml cholera toxin, […] hydrocortisone, 10% fetal bovine serum (FBS), 50 UI/ml penicillin, and 50 UI/ml streptomycin. Cells from passages 50-80 were used in all experiments. Every day, normal culture development was observed by phase-contrast microscopy. Cells were removed by gentle trypsin incubation at confluence and counted. They were seeded into 96 well culture plates (Corning, Schiphol-Rijk, The Netherlands) for microtitration analysis of flow cytotoxicity assay (˜10,000 cells/well). Cultures were kept at 37° C. for 24 h. Subconfluent cells (culture surface covering nearly 70%) were then exposed to various peptide concentrations (0.22-225 μM). Cytotoxicity was measured periodically using MultiTox-Fluor Multiplex assay kit (Promega, Wis., USA) by measuring the AFC fluorescence (λex=485 and λem=520 nm).
row,Compound,EC50 [µM]
1,"CC(C)[C@H](NC(=O)[C@H](C)NC(=O)[C@H](C)NC(=O)CNC(=O)[C@@H](N)CCCNC(=N)N)C(=O)N[C@H](C(=O)N[C@@H](CCCNC(=N)N)C(=O)N[C@@H](CCCNC(=N)N)C(=O)NCCCC[C@H](NC(=O)[C@H](CCCNC(=N)N)NC(=O)[C@H](CCCNC(=N)N)NC(=O)[C@@H](NC(=O)[C@@H](NC(=O)[C@H](C)NC(=O)[C@H](C)NC(=O)CNC(=O)[C@@H](N)CCCNC(=N)N)C(C)C)C(C)C)C(=O)NCCCC[C@H](NC(=O)[C@H](CCCCNC(=O)[C@H](CCCNC(=N)N)NC(=O)[C@H](CCCNC(=N)N)NC(=O)[C@@H](NC(=O)[C@@H](NC(=O)[C@H](C)NC(=O)[C@H](C)NC(=O)CNC(=O)[C@@H](N)CCCNC(=N)N)C(C)C)C(C)C)NC(=O)[C@H](CCCNC(=N)N)NC(=O)[C@H](CCCNC(=N)N)NC(=O)[C@@H](NC(=O)[C@@H](NC(=O)[C@H](C)NC(=O)[C@H](C)NC(=O)CNC(=O)[C@@H](N)CCCNC(=N)N)C(C)C)C(C)C)C(=O)N[C@@H](CCCCN)C(=O)O)C(C)C [[(SEQ ID NO: 10)2K]2KK] (I: H-RGAAVVRRKKK-OH / II: H-RGAAVVRRK / III: H-RGAAVVRR / IV: H-RGAAVVRR; amide I:9-IV:C, I:10-II:C, II:9-III:C; N-terminus and C-terminus assumed)",250
2,"C[C@H](NC(=O)[C@H](C)NC(=O)[C@H](CCCNC(=N)N)NC(=O)CNC(=O)[C@@H](N)CCCNC(=N)N)C(=O)N[C@@H](C)C(=O)N[C@@H](CCCNC(=N)N)C(=O)N[C@@H](CCCNC(=N)N)C(=O)NCCCC[C@H](NC(=O)[C@H](CCCNC(=N)N)NC(=O)[C@H](CCCNC(=N)N)NC(=O)[C@H](C)NC(=O)[C@H](C)NC(=O)[C@H](C)NC(=O)[C@H](CCCNC(=N)N)NC(=O)CNC(=O)[C@@H](N)CCCNC(=N)N)C(=O)NCCCC[C@H](NC(=O)[C@H](CCCCNC(=O)[C@H](CCCNC(=N)N)NC(=O)[C@H](CCCNC(=N)N)NC(=O)[C@H](C)NC(=O)[C@H](C)NC(=O)[C@H](C)NC(=O)[C@H](CCCNC(=N)N)NC(=O)CNC(=O)[C@@H](N)CCCNC(=N)N)NC(=O)[C@H](CCCNC(=N)N)NC(=O)[C@H](CCCNC(=N)N)NC(=O)[C@H](C)NC(=O)[C@H](C)NC(=O)[C@H](C)NC(=O)[C@H](CCCNC(=N)N)NC(=O)CNC(=O)[C@@H](N)CCCNC(=N)N)C(=O)N[C@@H](CCCCN)C(=O)O [[(SEQ ID NO: 16)2K]2KK] (I: H-RGRAAARRKKK-OH / II: H-RGRAAARRK / III: H-RGRAAARR / IV: H-RGRAAARR; amide I:9-IV:C, I:10-II:C, II:9-III:C; N-terminus and C-terminus assumed)",169
3,"CC(C)[C@H](NC(=O)[C@H](CCCCN)NC(=O)[C@H](CCCNC(=N)N)NC(=O)CNC(=O)[C@@H](N)CCCNC(=N)N)C(=O)N[C@H](C(=O)N[C@@H](C)C(=O)N[C@@H](C)C(=O)NCCCC[C@H](NC(=O)[C@H](C)NC(=O)[C@H](C)NC(=O)[C@@H](NC(=O)[C@@H](NC(=O)[C@H](CCCCN)NC(=O)[C@H](CCCNC(=N)N)NC(=O)CNC(=O)[C@@H](N)CCCNC(=N)N)C(C)C)C(C)C)C(=O)NCCCC[C@H](NC(=O)[C@H](CCCCNC(=O)[C@H](C)NC(=O)[C@H](C)NC(=O)[C@@H](NC(=O)[C@@H](NC(=O)[C@H](CCCCN)NC(=O)[C@H](CCCNC(=N)N)NC(=O)CNC(=O)[C@@H](N)CCCNC(=N)N)C(C)C)C(C)C)NC(=O)[C@H](C)NC(=O)[C@H](C)NC(=O)[C@@H](NC(=O)[C@@H](NC(=O)[C@H](CCCCN)NC(=O)[C@H](CCCNC(=N)N)NC(=O)CNC(=O)[C@@H](N)CCCNC(=N)N)C(C)C)C(C)C)C(=O)N[C@@H](CCCCN)C(=O)O)C(C)C [[(SEQ ID NO: 11)2K]2KK] (I: H-RGRKVVAAKKK-OH / II: H-RGRKVVAAK / III: H-RGRKVVAA / IV: H-RGRKVVAA; amide I:9-IV:C, I:10-II:C, II:9-III:C; N-terminus and C-terminus assumed)",> 257
